For 11 compounds, GI50 and melting point results are on record in patent US20020026052A1, “3-cyanoquinolines, 3-cyano-1,6-naphthyridines, and 3-cyano-1,7-naphthyridines as protein kinase inhibitors” (American Home Products Corporation, priority 2000, published 2002).

The target in series [1] is Rat2 fibroblasts stably transformed with v-Src/Hu c-Src fusion gene (Homo sapiens, UniProt P12931, cells depend on it, form not given). The series is described as follows: Anchorage Independent Src-transformed Fibroblast Proliferation Assay. The conditions noted are these: suspension growth, MTS reagent on Day 5; read-out: anch-indep src-tx fib IC50. It counts as cell-based, Rat. As for the experimental part:
Anchorage Independent Src-transformed Fibroblast Proliferation Assay
Rat2 fibroblasts stably transformed with a plasmid containing a CMV promotor controlled v-Src/Hu c-Src fusion gene in which the catalytic domain of human c-Src was inserted in place of the v-Src catalytic domain in the v-Src gene are used for the measurement of src dependent suspension growth. […] Multiple entries for a given compound indicate that it was tested multiple times.
For orientation: Tetrazolium assays rely on reduction of a dye to a coloured formazan, in cell work by metabolically active cells.

Each structure is given as a SMILES string. “And” between values parts separate entries of the source, which are not always exact repeats. Equal entries are not always repeated.

Chain of Rat2 fibroblasts stably transformed with v-Src/Hu c-Src fusion gene (P12931 whole entry, change not shown, the tested form may be a part): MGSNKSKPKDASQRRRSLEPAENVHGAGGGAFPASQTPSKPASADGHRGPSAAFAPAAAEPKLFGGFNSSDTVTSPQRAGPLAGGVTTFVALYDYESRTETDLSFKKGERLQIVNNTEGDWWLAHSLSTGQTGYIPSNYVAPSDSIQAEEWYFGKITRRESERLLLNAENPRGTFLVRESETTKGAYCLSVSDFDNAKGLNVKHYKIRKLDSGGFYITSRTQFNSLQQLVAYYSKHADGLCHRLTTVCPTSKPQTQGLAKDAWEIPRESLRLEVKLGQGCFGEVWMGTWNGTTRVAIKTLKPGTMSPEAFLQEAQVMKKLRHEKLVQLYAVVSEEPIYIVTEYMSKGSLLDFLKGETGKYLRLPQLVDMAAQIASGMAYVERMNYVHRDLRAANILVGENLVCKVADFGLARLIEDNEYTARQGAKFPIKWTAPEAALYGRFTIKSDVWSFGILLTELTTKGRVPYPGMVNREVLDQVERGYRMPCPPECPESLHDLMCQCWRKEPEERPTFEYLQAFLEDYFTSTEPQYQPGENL

For orientation: melting point means the temperature of the solid-liquid transition. Turning to `COc1cc(Nc2c(C#N)cnc3cc(C#Cc4ccc(C)cc4)ccc23)c(Cl)cc1Cl` [Example 141, 4-(2,4-Dichloro-5-methoxyanilino)-7-[2-(4-methylphenyl)ethynyl]-3-quinolinecarbonitrile], the melting point fell in the range of 223 to 225 °C. The GI50 in series [1] is greater than 10000 nM.

Compound `COc1cc(Nc2c(C#N)cnc3cc(/C=C/C(=O)OC(C)(C)C)ccc23)c(Cl)cc1Cl` [Example 142, (E)-tert-Butyl 3-[3-cyano-4-(2,4-dichloro-5-methoxyanilino)-7-quinolinyl]-2-propenoate] gave a melting point of 203 to 204 °C. For the same compound, the GI50 in series [1] is greater than 10000 nM.

As to `COc1cc(Nc2c(C#N)cnc3cc(C#CCO)ccc23)c(Cl)cc1Cl` [Example 143, 4-(2,4-Dichloro-5-methoxyanilino)-7-(3-hydroxy-1-propynyl)-3-quinolinecarbonitrile], the melting point is 245 °C (dec.). The GI50 in series [1] is greater than 10000 nM.

Consider `CCOC(=O)CC1CCN(Cc2ccc(-c3ccc4c(Nc5cc(OC)c(Cl)cc5Cl)c(C#N)cnc4c3)cc2)CC1` [Example 144, Ethyl (1-{4-[3-cyano-4-(2,4-dichloro-5-methoxyanilino)-7-quinolinyl]benzyl}-4-piperidinyl) acetate], for which the melting point lay within 142 to 144 °C. Besides, in series [1], the GI50 turned out to be 92 nM.

Regarding `CCOC(=O)C1CCCCN1Cc1ccc(-c2ccc3c(Nc4cc(OC)c(Cl)cc4Cl)c(C#N)cnc3c2)cc1` (stereo not shown) [Example 145, Ethyl 1-{4-[3-cyano-4-(2,4-dichloro-5-methoxyanilino)-7-quinolinyl]benzyl}-2-piperidinecarboxylate], the melting point lay in the range of 78 to 80 °C. Besides, the GI50 in series [1] is greater than 10000 nM.

`COc1cc(Nc2c(C#N)cnc3cc(-c4ccc(CN5CCCCC5C(=O)O)cc4)ccc23)c(Cl)cc1Cl` (stereo not shown) [Example 147, 1-{4-[3-Cyano-4-(2,4-dichloro-5-methoxyanilino)-7-quinolinyl]benzyl}-2-piperidinecarboxylic acid]: the melting point is 230 °C (dec.). Further, the GI50 in series [1] turned out to be 4600 nM.

With `CCOC(=O)C1CCCN(Cc2ccc(-c3ccc4c(Nc5cc(OC)c(Cl)cc5Cl)c(C#N)cnc4c3)cc2)C1` (stereo not shown) [Example 148, Ethyl 1-(4-{3-cyano-4-[(2,4-dichloro-5-methoxyphenyl)amino]-7-quinolinyl}benzyl)-3-piperidinecarboxylate], the melting point was 67 to 70 °C. Moreover, the GI50 in series [1] stood at 2100 nM.

Regarding `COc1cc(Nc2c(C#N)cnc3cc(-c4ccc(CN5CCCC(C(=O)O)C5)cc4)ccc23)c(Cl)cc1Cl` (stereo not shown) [Example 149, 1-(4-{3-Cyano-4-[(2,4-dichloro-5-methoxyphenyl)amino]-7-quinolinyl}benzyl)-3-piperidinecarboxylic acid], the melting point was 235 °C (dec.). The GI50 in series [1] worked out at 2500 nM.

`COc1cc(Nc2c(C#N)cnc3cc(-c4ccc(CN5CCS(=O)(=O)CC5)cc4)ccc23)c(Cl)cc1Cl` [Example 150, 4-[(2,4-Dichloro-5-methoxyphenyl)amino]-7-{4-[(1,1-dioxido-4-thiomorpholinyl)methyl]phenyl}-3-quinolinecarbonitrile] yielded a melting point of 248 to 251 °C. For the same compound, the GI50 in series [1] is 500 nM and 520 nM.

`COc1cc(Nc2c(C#N)cnc3cc(C#CCCl)ccc23)c(Cl)cc1Cl` [Example 152, 7-(3-Chloro-1-propynyl)-4-[(2,4-dichloro-5-methoxyphenyl)amino]-3-quinolinecarbonitrile] came in with a melting point of 215 to 217 °C. In addition, in series [1], the GI50 is 4800 nM and 3800 nM.

As for `COc1cc(Nc2c(C#N)cnc3cc(-c4ccc(CN5CCSCC5)cc4)ccc23)c(Cl)cc1Cl` [Example 153, 4-[(2,4-Dichloro-5-methoxyphenyl)amino]-7-[4-(4-thiomorpholinylmethyl)phenyl]-3-quinolinecarbonitrile], the melting point was 216 to 219 °C. Besides, the GI50 in series [1] is 2800 nM and 2700 nM.
